Data as given in US10099993B2, “Metabotropic glutamate receptor positive allosteric modulators (PAMS) and uses thereof” (Sanford-Burnham Medical Research Institute, priority 2014, dated 2018).
“Also recorded” adds a separate entry of the source.

Legend:
[1] = system: food-maintained responding in rats; conditions: previously shown (Jin, X. et al. 2010); cited from earlier work
[2] = system: cocaine-maintained responding in rats; conditions: previously shown (Jin, X. et al. 2010); cited from earlier work
mGlu3 [3] = biological target: T1, mGlu3 (Rattus norvegicus (Rat), UniProt P31422); experiment: TREx293 mGlu3 Gα15 calcium assay; type: cell-based; conditions: presence of an EC20 of glutamate, 20 ng/mL Tet for 20 h
Protocol: In order to generate a tetracycline (Tet)-inducible rat mGlu3 stable cell line to be used for a calcium mobilization assay, TREx293 cells (Invitrogen) were transfected with mouse Gα15-pCMV6 plasmid (Origene) using Fugene6 (Promega). The cells were selected for Gα15 expression with 1 mg/mL G418 in the presence of 10 μg/ml blasticidin to maintain Tet Repressor expression. Two weeks after the selection, polyclonal TREx293 Gα15 cells were obtained. The entire coding sequence of rat mGlu3 was amplified by polymerase chain reaction (PCR) and cloned into the Tet-inducible expression plasmid pcDNA5/TO (Invitrogen). Rat mGlu3-pcDNA5/TO was transfected into TREx293 Gα15 cells and selected for mGlu3 expression with 200 μg/ml hygromycin in the presence of G418 and blasticidin.
For mGlu3 the TREx tetracycline-inducible system (Invitrogen) was utilized. […] In the absence of Tet, no measurable expression of mGlu3 is detected either by Western blot (FIG. 3A) or by functional response to calcium mobilization (FIG. 3B). […] Data were analyzed using nonlinear regression. Data were obtained from three separate experiments performed in triplicate, normalized to the response to 100 μM glutamate in each experiment, and are expressed as the mean±SEM.

mGlu5 = mGlu5 (Rattus norvegicus (Rat), UniProt P31424); experiment: mGlu5 calcium assay; type: cell-based; conditions: full agonist concentration-response ± 10 μM compound
mGlu6 = mGlu6 (Rattus norvegicus (Rat), UniProt P35349); experiment: mGlu6 GIRK thallium flux assay; type: cell-based; conditions: full agonist concentration-response ± 10 μM compound
mGlu7 = mGlu7 (Rattus norvegicus (Rat), UniProt P35400); experiment: mGlu7 GIRK thallium flux assay; type: cell-based; conditions: full L-AP4 concentration-response ± 10 μM compound
mGlu4 = mGlu4 (Rattus norvegicus (Rat), UniProt P31423); experiment: mGlu4 GIRK thallium flux assay; type: cell-based; conditions: full agonist concentration-response ± 10 μM compound
mGlu1 = mGlu1 (Rattus norvegicus (Rat), UniProt P23385); experiment: mGlu1 calcium assay; type: cell-based; conditions: full agonist concentration-response ± 10 μM compound
mGlu8 = mGlu8 (Rattus norvegicus (Rat), UniProt P70579); experiment: mGlu8 GIRK thallium flux assay; type: cell-based; conditions: full agonist concentration-response ± 10 μM compound
mGlu3 [4] = biological target: T1, mGlu3; experiment: mGlu3 GIRK thallium flux assay; conditions: for General activity at mGlu3: full agonist concentration-response ± 10 μM compound; for Emin, minimal response of the concentration-response of agonist: mGlu3, 10 μM compound;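 as to all read-outs here: kinetic fluorescence slope read shortly after thallium plus agonist addition, scaled between vehicle and maximal agonist control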
[5] = In vivo PK in rats, i.v. administration; parameters: species or system rat; conditions: 2 mg/kg; for Cmax / Vd: rat, iv, plasma; for Vd: read-out: Vdss
[6] = In vivo PK in rats, p.o. administration; parameters: species or system rat; conditions: 20 mg/kg; for Plasma: harvested at or near the Tmax; for Kp / Tmax / Cmax: rat, po; for Kp: brain and plasma, read-out: Brain:Plasma ratio; for Tmax / Cmax: plasma
mGlu2 [7] = biological target: T2, mGlu2 (Rattus norvegicus (Rat), UniProt P31421); experiment: mGlu2 GIRK thallium flux assay; conditions: for General activity at mGlu2: full agonist concentration-response ± 10 μM compound; for Emin, minimal response of the concentration-response of agonist: mGlu2, 10 μM compound;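 as to all read-outs here: Cell-based assay, rate of fluorescence rise right after thallium plus agonist addition read on a kinetic imaging plate reader, normalized to vehicle and maximal agonist control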
[8] = In vivo PK in rats, i.p. administration; conditions: 10 mg/kg
mGlu2 [9] = biological target: T2, mGlu2; experiment: HEK293A mGlu2 Gα15 calcium assay; type: cell-based; conditions: presence of an EC20 of glutamate
SOD1G93A mice = conditions: continuous treatment 1 or 5 mg/kg/day; cited from earlier work
R6/2 mice = conditions: cited from earlier work
[10] = system: cultured spinal cord astrocytes; conditions: wild-type and mGlu2 knockout mice, not mGlu3 knockout; cited from earlier work
spinal cord GDNF levels = conditions: 0.5, 1 or 5 mg/kg i.p., wild-type and mGlu2 knockout mice; cited from earlier work
reserpine-treated rat = conditions: cited from earlier work
[11] = system: GDNF mRNA and protein levels; conditions: 0.25-3 mg/kg, i.p.; cited from earlier work
[12] = system: nigrostriatal damage induced by 1-methyl-4-phenyl-1,2,3,6-tetrahydropyridine; conditions: acute or repeated injections 0.25 or 3 mg/kg, i.p., mice; cited from earlier work
SMI-32+ motor neurons = conditions: mixed cultures of spinal cord cells; cited from earlier work
[13] = system: 6-OHDA lesioned nigrostriatal tract; conditions: cited from earlier work
[14] = compound concentration-response in presence and absence of EC20 glutamate

mGlu7, sequence (P35400 35-915): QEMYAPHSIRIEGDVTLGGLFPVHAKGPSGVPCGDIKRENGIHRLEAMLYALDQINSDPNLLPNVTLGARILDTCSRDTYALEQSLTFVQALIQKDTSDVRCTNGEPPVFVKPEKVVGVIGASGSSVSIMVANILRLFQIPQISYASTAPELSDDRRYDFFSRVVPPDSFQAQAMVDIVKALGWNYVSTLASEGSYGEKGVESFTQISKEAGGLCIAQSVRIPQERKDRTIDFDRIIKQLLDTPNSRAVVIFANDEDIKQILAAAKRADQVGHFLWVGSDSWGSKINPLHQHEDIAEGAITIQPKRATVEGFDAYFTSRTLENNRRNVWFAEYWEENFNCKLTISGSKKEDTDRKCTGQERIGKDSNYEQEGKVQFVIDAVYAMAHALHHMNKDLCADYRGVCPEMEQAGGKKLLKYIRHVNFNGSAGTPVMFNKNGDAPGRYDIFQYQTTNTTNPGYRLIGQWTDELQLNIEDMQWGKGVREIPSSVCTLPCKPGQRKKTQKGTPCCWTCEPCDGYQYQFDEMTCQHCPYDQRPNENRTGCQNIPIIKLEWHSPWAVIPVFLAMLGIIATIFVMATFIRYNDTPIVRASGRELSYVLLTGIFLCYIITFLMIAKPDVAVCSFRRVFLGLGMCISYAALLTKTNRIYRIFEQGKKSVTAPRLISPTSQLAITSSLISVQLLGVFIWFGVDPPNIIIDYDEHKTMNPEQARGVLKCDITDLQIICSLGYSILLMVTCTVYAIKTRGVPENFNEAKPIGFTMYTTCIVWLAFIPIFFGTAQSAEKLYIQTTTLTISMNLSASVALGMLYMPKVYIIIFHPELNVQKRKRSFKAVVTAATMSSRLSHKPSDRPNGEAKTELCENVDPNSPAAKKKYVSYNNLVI
mGlu5, sequence (P31424 21-1203): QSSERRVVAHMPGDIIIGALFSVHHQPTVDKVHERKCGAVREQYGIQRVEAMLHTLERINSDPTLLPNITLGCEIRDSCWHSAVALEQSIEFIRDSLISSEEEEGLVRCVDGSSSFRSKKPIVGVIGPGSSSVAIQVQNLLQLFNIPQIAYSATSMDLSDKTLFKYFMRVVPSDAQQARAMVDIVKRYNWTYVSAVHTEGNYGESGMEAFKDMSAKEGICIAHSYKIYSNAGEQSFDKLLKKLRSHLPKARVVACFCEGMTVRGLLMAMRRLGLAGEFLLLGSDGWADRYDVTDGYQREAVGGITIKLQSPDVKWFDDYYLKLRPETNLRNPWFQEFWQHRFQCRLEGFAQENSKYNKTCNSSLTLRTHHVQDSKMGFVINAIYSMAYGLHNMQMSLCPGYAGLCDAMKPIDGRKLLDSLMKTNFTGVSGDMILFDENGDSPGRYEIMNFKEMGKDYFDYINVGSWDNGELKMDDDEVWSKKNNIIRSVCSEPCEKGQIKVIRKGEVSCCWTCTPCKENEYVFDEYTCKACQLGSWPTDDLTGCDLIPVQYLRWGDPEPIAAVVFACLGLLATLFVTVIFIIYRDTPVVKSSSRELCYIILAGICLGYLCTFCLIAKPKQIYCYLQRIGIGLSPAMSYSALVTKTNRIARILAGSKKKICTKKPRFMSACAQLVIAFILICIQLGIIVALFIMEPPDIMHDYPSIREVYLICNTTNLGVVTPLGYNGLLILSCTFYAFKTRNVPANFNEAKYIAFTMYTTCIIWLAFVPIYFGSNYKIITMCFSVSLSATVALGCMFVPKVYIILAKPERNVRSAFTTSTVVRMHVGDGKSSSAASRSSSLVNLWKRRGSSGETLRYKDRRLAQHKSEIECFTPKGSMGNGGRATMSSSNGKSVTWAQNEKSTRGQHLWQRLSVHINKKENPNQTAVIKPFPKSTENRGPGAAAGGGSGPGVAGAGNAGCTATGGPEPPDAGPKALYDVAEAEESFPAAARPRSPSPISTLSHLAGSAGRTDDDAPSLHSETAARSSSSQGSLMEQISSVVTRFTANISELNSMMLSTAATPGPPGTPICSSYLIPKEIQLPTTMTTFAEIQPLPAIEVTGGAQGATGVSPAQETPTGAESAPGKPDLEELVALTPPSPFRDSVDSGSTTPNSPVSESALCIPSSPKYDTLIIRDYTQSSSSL
mGlu6, sequence (P35349 24-871): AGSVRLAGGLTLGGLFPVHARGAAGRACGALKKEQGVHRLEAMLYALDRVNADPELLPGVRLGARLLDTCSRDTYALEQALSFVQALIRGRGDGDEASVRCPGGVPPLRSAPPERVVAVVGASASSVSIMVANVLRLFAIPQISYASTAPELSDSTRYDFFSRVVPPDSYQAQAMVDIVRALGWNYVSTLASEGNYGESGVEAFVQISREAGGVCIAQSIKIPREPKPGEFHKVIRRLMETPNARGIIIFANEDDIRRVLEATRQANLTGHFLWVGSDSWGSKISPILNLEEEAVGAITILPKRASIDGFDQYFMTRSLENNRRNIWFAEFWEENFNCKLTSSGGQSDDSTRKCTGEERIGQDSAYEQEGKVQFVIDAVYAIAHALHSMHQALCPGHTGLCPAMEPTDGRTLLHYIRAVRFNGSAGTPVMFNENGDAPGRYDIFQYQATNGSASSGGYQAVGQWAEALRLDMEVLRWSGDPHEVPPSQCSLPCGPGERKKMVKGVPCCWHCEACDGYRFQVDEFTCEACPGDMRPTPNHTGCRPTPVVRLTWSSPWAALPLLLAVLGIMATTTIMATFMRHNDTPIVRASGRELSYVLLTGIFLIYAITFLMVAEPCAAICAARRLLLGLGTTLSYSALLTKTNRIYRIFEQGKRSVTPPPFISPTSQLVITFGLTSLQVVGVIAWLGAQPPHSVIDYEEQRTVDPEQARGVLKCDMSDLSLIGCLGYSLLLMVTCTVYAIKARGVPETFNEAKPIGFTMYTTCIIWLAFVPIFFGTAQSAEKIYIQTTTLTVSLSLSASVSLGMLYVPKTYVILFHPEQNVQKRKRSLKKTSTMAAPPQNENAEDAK
mGlu8, sequence (P70579 34-908): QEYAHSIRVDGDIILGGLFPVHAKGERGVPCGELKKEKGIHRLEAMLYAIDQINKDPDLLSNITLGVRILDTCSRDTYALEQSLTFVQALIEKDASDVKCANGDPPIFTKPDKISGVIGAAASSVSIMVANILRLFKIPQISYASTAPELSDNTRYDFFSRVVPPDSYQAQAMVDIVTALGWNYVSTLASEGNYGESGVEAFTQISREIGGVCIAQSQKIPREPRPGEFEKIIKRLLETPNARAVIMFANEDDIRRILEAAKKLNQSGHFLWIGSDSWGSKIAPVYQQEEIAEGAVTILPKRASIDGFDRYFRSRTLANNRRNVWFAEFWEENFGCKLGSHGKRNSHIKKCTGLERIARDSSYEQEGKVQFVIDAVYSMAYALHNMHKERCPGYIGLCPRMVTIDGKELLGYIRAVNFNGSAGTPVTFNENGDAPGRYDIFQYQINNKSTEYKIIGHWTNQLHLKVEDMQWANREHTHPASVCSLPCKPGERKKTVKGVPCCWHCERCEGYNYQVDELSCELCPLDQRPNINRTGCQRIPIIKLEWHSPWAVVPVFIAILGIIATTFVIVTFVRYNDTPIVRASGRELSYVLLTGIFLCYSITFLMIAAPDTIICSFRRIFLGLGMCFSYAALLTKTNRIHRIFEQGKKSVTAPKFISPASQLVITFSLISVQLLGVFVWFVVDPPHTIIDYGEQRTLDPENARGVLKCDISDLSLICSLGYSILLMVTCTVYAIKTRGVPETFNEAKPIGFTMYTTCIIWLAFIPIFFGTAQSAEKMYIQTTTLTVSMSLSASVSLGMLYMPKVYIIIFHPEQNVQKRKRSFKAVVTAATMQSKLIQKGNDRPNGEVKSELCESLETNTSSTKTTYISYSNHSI
mGlu1, sequence (P23385 19-1199): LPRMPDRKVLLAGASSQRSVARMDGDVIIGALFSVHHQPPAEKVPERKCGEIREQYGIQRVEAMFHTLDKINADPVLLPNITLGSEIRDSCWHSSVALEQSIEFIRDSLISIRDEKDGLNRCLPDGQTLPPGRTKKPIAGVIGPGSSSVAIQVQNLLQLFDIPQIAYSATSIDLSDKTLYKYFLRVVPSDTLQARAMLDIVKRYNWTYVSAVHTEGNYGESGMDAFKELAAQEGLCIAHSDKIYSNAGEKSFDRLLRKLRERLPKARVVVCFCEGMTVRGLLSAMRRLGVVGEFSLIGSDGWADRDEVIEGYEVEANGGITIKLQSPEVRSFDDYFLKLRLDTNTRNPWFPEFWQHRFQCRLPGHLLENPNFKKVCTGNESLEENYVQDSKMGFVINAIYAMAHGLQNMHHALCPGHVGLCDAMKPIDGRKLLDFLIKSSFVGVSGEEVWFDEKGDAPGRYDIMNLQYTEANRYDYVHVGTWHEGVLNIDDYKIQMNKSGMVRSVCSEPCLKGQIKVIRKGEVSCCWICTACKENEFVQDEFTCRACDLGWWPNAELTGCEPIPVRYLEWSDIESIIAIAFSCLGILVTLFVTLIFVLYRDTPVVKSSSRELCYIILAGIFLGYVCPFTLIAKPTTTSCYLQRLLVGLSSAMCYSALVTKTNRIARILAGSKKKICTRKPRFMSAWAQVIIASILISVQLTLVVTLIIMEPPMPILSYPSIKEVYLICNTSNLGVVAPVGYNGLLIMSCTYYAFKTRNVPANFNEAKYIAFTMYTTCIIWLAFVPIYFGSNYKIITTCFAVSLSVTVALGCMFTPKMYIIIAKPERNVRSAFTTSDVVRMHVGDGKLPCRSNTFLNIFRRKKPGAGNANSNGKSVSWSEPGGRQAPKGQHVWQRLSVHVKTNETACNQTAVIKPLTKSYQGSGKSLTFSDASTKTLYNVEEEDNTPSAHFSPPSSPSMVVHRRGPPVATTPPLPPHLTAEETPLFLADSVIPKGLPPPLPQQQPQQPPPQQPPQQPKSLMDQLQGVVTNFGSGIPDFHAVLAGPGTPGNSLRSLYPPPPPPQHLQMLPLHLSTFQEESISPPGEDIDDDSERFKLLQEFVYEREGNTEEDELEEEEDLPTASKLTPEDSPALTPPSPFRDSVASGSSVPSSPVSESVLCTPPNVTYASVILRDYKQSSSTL

In the case of `Cc1c(OCc2cccc(-c3ccc(C(=O)O)cc3)c2)cc2c(c1C)C(=O)C(C1CCCC1)C2` (stereo not drawn) [BINA], the food-maintained responding [1] is listed as “no effect on food-maintained responding”, the cocaine-maintained responding [2] is listed as “decreased only cocaine-maintained responding” and the “activity in TREx293 mGlu3 Gα15 calcium assay” value (mGlu3 [3]) is listed as “inactive”.

For `Cc1c(OCCCCOc2ccc(C(=O)O)cc2)ccc(C(=O)CC(C)C)c1O` [Compound 20, 4-(4-(3-Hydroxy-2-methyl-4-(3-methylbutanoyl)phenoxy)butoxy)benzoic acid], the “General activity at mGlu5” value (mGlu5) was “inactive^b”, the “General activity at mGlu6” value (mGlu6) was “inactive^b” and the “General activity at mGlu7” value (mGlu7) was “inactive^b”. For the same molecule, the “General activity at mGlu4” value (mGlu4) was “inactive^b”, the “General activity at mGlu1” value (mGlu1) was “inactive^b” and the “General activity at mGlu8” value (mGlu8) was “inactive^b”. The “General activity at mGlu3” value (mGlu3 [4]) was “PAM”, the “AUC(0→t)” value [5] was 231.7 ± 42.12 (μmol/L)*min and the Cmax [5] was 5 ± 0.6 µM. For the same molecule, the Vd [5] was 0.81 ± 0.14 L/kg, the “AUC(0→t)” value [6] was 544.8 ± 75.4 (μmol/L) min and the “F, oral bioavailability” value [6] was 23.5%. The Plasma [6] was 5.29 ± 1.98 µM, the Kp [6] was 0.2 ± 0.03 and the Tmax [6] was 2.25 h. For the same molecule, the Cmax [6] was 2.57 ± 0.45 µM.

In the case of `Cc1c(OCCCCOc2cccc(C(=O)O)c2)ccc(C(=O)CC2CCCC2)c1O` [Compound 25, 3-(4-(4-(2-Cyclopentylacetyl)-3-hydroxy-2-methylphenoxy)butoxy)benzoic acid], the “General activity at mGlu2” value (mGlu2 [7]) is reported as “Ago-PAM”, the “Emin, minimal response of the concentration-response of agonist” value (from here on “Emin, minimal response”) (mGlu2 [7]) is reported as “Emin = 45%” and the “General activity at mGlu5” value (mGlu5) is reported as “inactive^b”. The “General activity at mGlu6” value (mGlu6) was “inactive^b”, the “General activity at mGlu7” value (mGlu7) was “inactive^b” and the “General activity at mGlu4” value (mGlu4) was “inactive^b”. The “General activity at mGlu1” value (mGlu1) was “inactive^b”, the “General activity at mGlu8” value (mGlu8) was “inactive^b” and the “General activity at mGlu3” value (mGlu3 [4]) was “PAM”. The “Emin, minimal response” value (mGlu3 [4]) was “Emin = 6%”.

For `Cc1c(OCCCCOc2ccc(C(=O)O)c(Cl)c2)ccc(C(=O)CC2CCCC2)c1O` [Compound 33, 2-Chloro-4-(4-(4-(2-cyclopentylacetyl)-3-hydroxy-2-methylphenoxy)butoxy)benzoic acid], the “General activity at mGlu2” value (mGlu2 [7]) was “Ago-PAM”, the “General activity at mGlu5” value (mGlu5) was “inactive^b” and the “General activity at mGlu6” value (mGlu6) was “inactive^b”. The “General activity at mGlu7” value (mGlu7) was “inactive^b”, the “General activity at mGlu4” value (mGlu4) was “inactive^b” and the “General activity at mGlu1” value (mGlu1) was “inactive^b”. For the same molecule, the “General activity at mGlu8” value (mGlu8) was “inactive^b”.

With `COc1cc(C(=O)O)ccc1OCCCCOc1ccc(C(=O)CC(C)C)c(O)c1C` [Compound 44, 4-{4-[3-Hydroxy-2-methyl-4-(3-methylbutanoyl)phenoxy]butoxy}-3-methoxybenzoic acid] the “intrinsic agonist activity towards mGlu2 (Agonist Mode)” value (mGlu2 [7]; absence of an EC20 concentration of agonist) was “intrinsic agonist activity”, the “activity toward mGlu2 in GIRK thallium-flux assay” value (mGlu2 [7]; [14]) was “Ago-PAM activity” and the “General activity at mGlu2” value (mGlu2 [7]) was “Ago-PAM”. The “Emin, minimal response” value (mGlu2 [7]) was “Emin = 90%”, the “General activity at mGlu5” value (mGlu5) was “inactive^b” and the “General activity at mGlu6” value (mGlu6) was “inactive^b”. For the same molecule, the “General activity at mGlu7” value (mGlu7) was “inactive^b”, the “General activity at mGlu4” value (mGlu4) was “inactive^b” and the “General activity at mGlu1” value (mGlu1) was “inactive^b”. For the same molecule, the “activity in TREx293 mGlu3 Gα15 calcium assay” value (mGlu3 [3]) was “demonstrates mGlu3 PAM activity”, the “General activity at mGlu8” value (mGlu8) was “inactive^b” and the “activity toward mGlu3 in GIRK thallium-flux assay” value (mGlu3 [4]; [14]) was “PAM activity”. For the same molecule, the “General activity at mGlu3” value (mGlu3 [4]) was “PAM”, the “Emin, minimal response” value (mGlu3 [4]) was “Emin = 4%” and the Kp at 30 min ([8]; rat, brain and plasma, ip) was 0.03 ± 0.01. For the same molecule, the “Brain, maximum concentration” value ([8]; rats, i.p., Tmax […] min) was 0.23 ± 0.10 µM, the “Plasma, maximum concentration” value ([8]; rats, i.p., Tmax […] min) was 10.57 ± 2.52 µM and the “AUC(0→t)” value [5] was 304.6 ± 25.8 (μmol/L)*min. The Cmax [5] was 6.43 ± 0.39 µM, the Vd [5] was 0.55 ± 0.04 L/kg and the “activity in HEK293A mGlu2 Gα15 calcium assay” value (mGlu2 [9]) was “behaves as a PAM; also recorded: PAM activity”. The “AUC(0→t)” value [6] was 1274.6 ± 246.3 (μmol/L) min, the “F, oral bioavailability” value [6] was 41.9% and the Plasma [6] was 16.38 ± 1.1 µM. For the same molecule, the Kp [6] was 0.05 ± 0.01, the Tmax [6] was 1.5 h and the Cmax [6] was 2.75 ± 0.47 µM.

In the case of `N[C@@]1(C(=O)O)CO[C@H]2[C@H](C(=O)O)[C@H]21` [LY379268], the “neurological disability in SOD1G93A mice” value (SOD1G93A mice) is given as “beneficial effect on neurological disability”, the striatal neuron loss (R6/2 mice; R6/2 mice, 20 mg/kg s.c. daily, at 10 weeks) is given as “rescue of a 15-20% striatal neuron loss” and the “phenotype in R6/2 mice” value (R6/2 mice; daily s.c. MTD 20 mg/kg beginning at 4 weeks) is given as “dramatically improves the phenotype”. For the same molecule, the food-maintained responding [1] was “decrease both cocaine- and food-maintained responding”, the “GDNF levels in cultured spinal cord astrocytes” value [10] was “enhanced GDNF levels” and the cocaine-maintained responding [2] was “decrease both cocaine- and food-maintained responding”. For the same molecule, the “spinal cord GDNF levels” value (spinal cord GDNF levels) was “enhanced spinal cord GDNF levels”, the “locomotor activity in reserpine-treated rat” value (reserpine-treated rat; intracerebroventricular 1, 5, 10, 20 nmol/2 μl) was “dose-dependent increase in locomotor activity” and the reserpine-induced akinesia (reserpine-treated rat; systemic 0.1, 1, 10 mg/kg ip) was “did not reverse reserpine-induced akinesia”. For the same molecule, the “GDNF mRNA and protein levels in the mouse brain” value [11] was “increased”, the “protection against MPTP-induced nigrostriatal damage” value [12] was “highly protective against nigrostriatal damage” and the “protection of SMI-32+ motor neurons against excitotoxic death” value (SMI-32+ motor neurons) was “protected”. For the same molecule, the “protection against nigral infusion of 6-OHDA” value ([13]; 10 mg/kg/day ip for 7 days) was “provided some protection against nigral infusion of 6-OHDA”, the “protection against striatal infusion of 6-OHDA” value ([13]; 10 mg/kg/day ip for 21 days) was “significant protection in the striatum” and the “rotational behaviour 1 month after unilateral 6-OHDA lesioning” value ([13]; systemic 0.1, 1, 10 mg/kg ip) was “failed to effect rotational behaviour”.

In the case of `CCCC(=O)c1ccc(OCCCCOc2ccc(C(=O)O)cc2OC)c(C)c1O` [compound 67], the “General activity at mGlu5” value (mGlu5) is reported as “inactive^b”, the “General activity at mGlu6” value (mGlu6) is reported as “inactive^b” and the “General activity at mGlu7” value (mGlu7) is reported as “inactive^b”. For the same molecule, the “General activity at mGlu4” value (mGlu4) was “Antagonist”, the “General activity at mGlu1” value (mGlu1) was “Antagonist” and the “General activity at mGlu8” value (mGlu8) was “inactive^b”.
